Laboratory results reported in US6949571B2, “1,2-dihydropyridine compounds, process for preparation of the same and use thereof” (Eisai Co., Ltd., priority 2000, dated 2005).
Where two headings read alike, the source gives them in different places.

Test system: AMPA receptor
[1] = Table 1, primary culture of rat embryo cerebral cortex nerve cells, 2 μM AMPA, 1 μM MK-801
[2] = Table 2, suppression of AMPA-induced calcium influx into nerve cells
[3] = Table 3, primary culture of rat embryo cerebral cortex nerve cells, 2 μM AMPA, 1 μM MK-801
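Also: primary rat embryonic cortical neurons grown on an astrocyte layer in 96-well plates, used after at least 8 to 10 days in culture, Fura2-AM fluorescence ratio at 340/380 nm excitation.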

SMILES | IC50 [1] | IC50 [2] | further results
O=c1c(-c2ccccc2)cc(-c2ccccn2)cn1-c1ccc(F)cc1 [Example 98, 3-Phenyl-5-(2-pyridyl)-1-(4-fluorophenyl)-1,2-dihydropyridin-2-one] | 600 nM | – | –
CN1CCN(c2ccc(-n3cc(-c4ccccn4)cc(-c4ccccc4C#N)c3=O)cn2)CC1 [Example 121, 3-(2-Cyanophenyl)-5-(2-pyridyl)-1-[2-(4-methylpiperazin-1-yl)-pyridin-5-yl]-1,2-dihydropyridin-2-one] | 600 nM | – | –
N#CCc1ccc(-n2cc(-c3ccccn3)cc(-c3ccccc3C#N)c2=O)cc1 [Example 150, 3-(2-Cyanophenyl)-5-(2-pyridyl)-1-(4-cyanomethylphenyl)-1,2-dihydropyridin-2-one] | – | 300 nM | –
O=c1c(-c2cccnc2F)cc(-c2ccccc2)cn1-c1cccnc1 [Example 87, 3-(2-Fluoro-3-pyridyl)-5-phenyl-1-(3-pyridyl)-1,2-dihydropyridin-2-one] | 1200 nM | – | –
CS(=O)(=O)Nc1ccccc1-c1cc(-c2ccccn2)cn(-c2ccccc2)c1=O [Example 226, 3-[2-(Methylsulfonylamino)phenyl]-1-phenyl-5-(2-pyridyl)-1,2-dihydropyridin-2-one] | – | 9500 nM | –
O=C1C=C(c2cc(-c3ccccn3)cn(-c3ccccc3)c2=O)CCC1 [Example 268, 3-(3-Oxo-1-cyclohexen-1-yl)-1-phenyl-5-(2-pyridyl)-1,2-dihydropyridin-2-one] | – | 4200 nM | –
O=c1c(C23CC4CC(CC(C4)C2)C3)cc(-c2ccccn2)cn1-c1ccccc1 [Example 178, 3-(1-Adamantyl)-5-(2-pyridyl)-1-phenyl-1,2-dihydropyridin-2-one] | – | 2000 nM | –
COc1ccccc1-c1cc(-c2ccccn2)cn(-c2ccc(F)cc2)c1=O [Example 56, 3-(2-Methoxyphenyl)-5-(2-pyridyl)-1-(4-fluorophenyl)-1,2-dihydropyridin-2-one] | 3200 nM | – | –
N#Cc1cccc(-c2cc(-c3ccccn3)cn(-c3ccccc3)c2=O)c1 [Example 63, 3-(3-Cyanophenyl)-5-(2-pyridyl)-1-phenyl-1,2-dihydropyridin-2-one] | 1100 nM | – | –
CN1CCC(Oc2cccc(-n3cc(-c4ccccn4)cc(-c4ccccc4C#N)c3=O)c2)CC1 [Example 341, 1-[3-(N-methylpiperidin-4-yl-oxy)phenyl]-3-(2-cyanophenyl)-5-(2-pyridyl)-1,2-dihydropyridin-2-one] | – | – | IC50 [3]: 200 nM
Cc1ccc2[nH]c(-c3cc(-c4ccccc4C#N)c(=O)n(-c4ccccc4)c3)nc2c1 [Example 351, 3-(2-Cyanophenyl)-5-(5-methyl-1H-benzimidazol-2-yl)-1-phenyl-1,2-dihydropyridin-2-one] | – | – | IC50 [3]: 3300 nM
O=c1c(-c2ccnnc2)cc(-c2ccccn2)cn1-c1ccccc1 [Example 259, 1-Phenyl-3-(4-pyridazyl)-5-(2-pyridyl)-1,2-dihydropyridin-2-one] | – | 2000 nM | –
CS(=O)(=O)c1ccc(-n2cc(-c3ccccn3)cc(-c3ccccc3C#N)c2=O)cc1 [Example 27, 3-(2-Cyanophenyl)-5-(2-pyridyl)-1-(4-methylsulfonylphenyl)-1,2-dihydropyridin-2-one] | 50 nM | – | –
O=c1c(C2CCCCC2)cc(-c2ccccn2)cn1-c1ccccc1 [Example 192, 3-Cyclohexyl-5-(2-pyridyl)-1-phenyl-1,2-dihydropyridin-2-one] | – | 1100 nM | –
O=c1c(Sc2ccc(Cl)cc2)cc(-c2ccccn2)cn1-c1ccccc1 [Example 188, 3-(4-Chlorophenylthio)-5-(2-pyridyl)-1-phenyl-1,2-dihydropyridin-2-one] | – | 8500 nM | –
CNC(=O)c1cccc(-n2cc(-c3ccccn3)cc(-c3ccccc3C#N)c2=O)c1 [Example 15, 3-(2-Cyanophenyl)-5-(2-pyridyl)-1-(3-methylaminocarbonylphenyl)-1,2-dihydropyridin-2-one] | 50 nM | – | –
N#Cc1ccccc1-c1cc(-c2ccccn2)cn(-c2ccoc2)c1=O [Example 106] | 70 nM | – | –
N#Cc1ccccc1-c1cc(-c2ncccn2)cn(-c2cccc(N)c2)c1=O [Example 218, 1-(3-Aminophenyl)-3-(2-cyanophenyl)-5-(2-pyrimidinyl)-1,2-dihydropyridin-2-one] | – | 100 nM | –
Nc1ccc(-c2cc(-c3ccccn3)cn(-c3ccccc3)c2=O)cc1 [Example 221, 3-(4-Aminophenyl)-1-phenyl-5-(2-pyridyl)-1,2-dihydropyridin-2-one] | – | 7100 nM | –
N#Cc1ccccc1-c1cc(-c2nc3cccc4c3n2CCC4)cn(-c2ccccc2)c1=O [Example 358, 3-(2-Cyanophenyl)-5-(5,6-dihydro-4H-imidazo[4,5,1-i,j]quinolin-2-yl)-1-phenyl-1,2-dihydropyridin-2-one] | – | – | IC50 [3]: 1400 nM
O=c1c(-c2cccnc2F)cc(-c2ncccn2)cn1-c1cccnc1 [Example 263, 3-(2-Fuluoropyridin-3-yl)-1-(3-pyridyl)-5-(2-pyrimidinyl)-1,2-dihydropyridin-2-one] | – | 1000 nM | –

SMILES | IC50 [1] | IC50 [2] | further results
CCS(=O)(=O)c1ccc(-n2cc(-c3ccccn3)cc(-c3ccccc3C#N)c2=O)cn1 [Example 152, 3-(2-Cyanophenyl)-5-(2-pyridyl)-1-(2-ethylsulfonylpyridin-5-yl)-1,2-dihydropyridin-2-one] | – | 4000 nM | –
N#Cc1ccccc1-c1cc(-c2ccccn2)cn(-c2cccc(OC3CCN(C(=O)c4ccccc4)CC3)c2)c1=O [Example 334, 1-[3-(N-benzoylpiperidin-4-yl-oxy)phenyl]-3-(2-cyanophenyl)-5-(2-pyridyl)-1,2-dihydropyridin-2-one] | – | – | IC50 [3]: 600 nM
N#Cc1ccccc1-c1cc(-c2ccccn2)cn(CC2CCCC2)c1=O [Example 317, 3-(2-Cyanophenyl)-1-cyclopentylmethyl-5-(2-pyridyl)-1,2-dihydropyridin-2-one] | – | – | IC50 [3]: 600 nM
O=C(NC12CC3CC(CC(C3)C1)C2)c1cc(-c2ccccn2)cn(-c2ccccc2)c1=O [Example 346, 3-(1-Adamantylaminocarbonyl)-5-(2-pyridyl)-1-phenyl-1,2-dihydropyridin-2-one] | – | – | IC50 [3]: 3700 nM
N#Cc1ccccc1-c1cc(-c2nc3ccccc3n2-c2ccccc2)cn(-c2ccccc2)c1=O [Example 182, 3-(2-Cyanophenyl)-5-(1-phenylbenzimidazol-2-yl)-1-phenyl-1,2-dihydropyridin-2-one] | – | 6000 nM | –
N#Cc1ccccc1-c1cc(-c2ccccc2F)cn(-c2ccccc2)c1=O [Example 45, 3-(2-Cyanophenyl)-5-(2-fluorophenyl)-1-phenyl-1,2-dihydropyridin-2-one] | 200 nM | – | –
CNc1cccc(-n2cc(-c3ccccn3)cc(-c3ccccc3C#N)c2=O)c1 [Example 11, 3-(2-Cyanophenyl)-5-(2-pyridyl)-1-(3-methylaminophenyl)-1,2-dihydropyridin-2-one] | 60 nM | – | –
CS(=O)(=O)N1CCC(Oc2cccc(-n3cc(-c4ccccn4)cc(-c4ccccc4C#N)c3=O)c2)CC1 [Example 338, 3-(2-Cyanophenyl)-1-{3-[1-(methanesulfonyl)piperidin-4-yl-oxy]phenyl}-5-(2-pyridyl)-1,2-dihydropyridin-2-one] | – | – | IC50 [3]: 400 nM
N#Cc1ccccc1-c1cc(C(=O)c2ccccn2)cn(-c2ccccc2)c1=O [Example 394, 3-(2-Cyanophenyl)-5-(2-pyridinecarbonyl)-1-phenyl-1,2-dihydropyridin-2-one] | – | – | IC50 [3]: 1400 nM
CS(=O)(=O)NCc1cccc(-n2cc(-c3ccccn3)cc(-c3ccccc3C#N)c2=O)c1 [Example 24, 3-(2-Cyanophenyl)-5-(2-pyridyl)-1-(3-methylsulfonylaminomethylphenyl)-1,2-dihydropyridin-2-one] | 200 nM | – | –
Cc1ccc(-c2cc(-c3ccccc3C#N)c(=O)n(-c3ccccc3)c2)nc1 [Example 196, 3-(2-Cyanophenyl)-5-(5-methylpyridin-2-yl)-1-phenyl-1,2-dihydropyridin-2-one] | – | 300 nM | –
CN(C)CCOc1cccc(-n2cc(-c3ccccn3)cc(-c3ccccc3C#N)c2=O)c1 [Example 239, 3-(2-Cyanophenyl)-1-[3-(dimethylaminoethoxy)phenyl]-5-(2-pyridyl)-1,2-dihydropyridin-2-one] | – | 300 nM | –
N#Cc1ccccc1-c1cc(-c2cccc3ccccc23)cn(-c2cccnc2)c1=O [Example 210, 3-(2-Cyanophenyl)-5-(1-naphthyl)-1-(3-pyridyl)-1,2-dihydropyridin-2-one] | – | 5200 nM | –
O=c1c(-c2ccccc2-c2cnco2)cc(-c2ccccn2)cn1-c1ccccc1 [Example 392, 3-[2-(5-oxazolyl)phenyl]-1-phenyl-5-(2-pyridyl)-1,2-dihydropyridin-2-one] | – | – | IC50 [3]: 100 nM
O=c1c(N(Cc2ccccc2)Cc2ccccc2)cc(-c2ccccn2)cn1-c1ccccc1 [Example 314, 3-Dibenzylamino-1-phenyl-5-(2-pyridyl)-1,2-dihydropyridin-2-one] | – | – | IC50 [3]: 4600 nM
N#Cc1ccccc1-c1cc(NCc2ccccc2)cn(-c2ccccc2)c1=O [Example 313, 5-Benzylamino-3-(2-cyanophenyl)-1-phenyl-1,2-dihydropyridin-2-one] | – | – | IC50 [3]: 5900 nM
CC(C)N(CCOc1cccc(-n2cc(-c3ccccn3)cc(-c3ccccc3C#N)c2=O)c1)C(C)C [Example 242, 3-(2-Cyanophenyl)-1-[3-(diisopropylaminoethoxy)phenyl]-5-(2-pyridyl)-1,2-dihydropyridin-2-one] | – | 500 nM | –
COc1ccc(-n2cc(-c3ccccn3)cc(-c3ccccc3Cl)c2=O)cc1 [Example 17, 3-(2-Chlorophenyl)-5-(2-pyridyl)-1-(4-methoxyphenyl)-1,2-dihydropyridin-2-one] | 700 nM | – | –
N#Cc1ccccc1-c1cc(-c2ccccn2)cn(-c2ccsc2)c1=O [Example 105, 3-(2-Cyanophenyl)-5-(2-pyridyl)-1-(thiophen-3-yl)-1,2-dihydropyridin-2-one] | 30 nM | – | –
N#Cc1ccccc1-c1cc(-c2ccccn2)cn(-c2cccc(OCc3ccccc3)c2)c1=O [Example 276, 1-[3-(Benzyloxy)phenyl]-3-(2-cyanophenyl)-5-(2-pyridyl)-1,2-dihydropyridin-2-one] | – | 1900 nM | –
O=c1c(-c2ccc(Cl)cc2)cc(-c2ccccn2)cn1-c1ccccc1 [Example 66, 3-(4-Chlorophenyl)-5-(2-pyridyl)-1-phenyl-1,2-dihydropyridin-2-one] | 2400 nM | – | –
